Reference: ChEMBL document CHEMBL2010699, “Novel substituted 9-norbornylpurines and their activities against RNA viruses” (Bioorg Med Chem Lett, 2012)
In brackets after ≈: the same amount, converted by molar mass. Activity calls are given as the source filed them. The rule behind the calls is not given here.

What was measured:
[1] = Solubility of the compound in water at 20 degC by UV spectrophotometry; type: physicochemical
[2] = Cytotoxicity against african green monkey Vero cells assessed as inhibition of host metabolism by MTS assay; type: cell-based; details: chlorocebus sabaeus
Hepatitis C virus = assay: Antiviral activity against Hepatitis C virus assessed as suppression of viral replication; type: functional, organism-based; details: Hepacivirus hominis
Chikungunya virus = assay: Antiviral activity against Chikungunya virus assessed as suppression of viral replication; type: functional
Coxsackievirus B3 [3] = assay: Antiviral activity against Coxsackievirus B3 infected in african green monkey Vero cells assessed as inhibition virus-induced cell death by MTS assay; type: functional, organism-based; details: Enterovirus B
[4] = Selectivity index, ratio of CC50 for african green monkey Vero cells to EC50 for Coxsackievirus B3; type: toxicity, cell-based; details: read-out: Ratio CC50/EC50
Vero = assay: Cytotoxicity against african green monkey Vero cells assessed as change in morphology of the cells by microscopic analysis; type: cell-based; details: chlorocebus sabaeus
Coxsackievirus B3 [5] = assay: Antiviral activity against Coxsackievirus B3 infected in african green monkey vero cells assessed as inhibition of virus-induced cytopathic effect by microscopic estimation; type: functional, organism-based

Clc1ncnc2c1ncn2C1CC2CCC1C2 (stereo unspecified)
solubility [1]: 530 µg/mL (≈ 2.13 mM)

O=C(OC1CC2CC1CC2n1cnc2c(Cl)ncnc21)c1ccccc1 (stereo unspecified)
CC50 [2]: > 542 µM
Activity (Hepatitis C virus): inactive
Activity (Chikungunya virus): inactive
EC50 (Coxsackievirus B3 [3]): > 150 µM
EC90 (Coxsackievirus B3 [3]): > 150 µM

O=C(OC1CC2CC1C(n1cnc3c(Cl)ncnc31)C2)c1ccccc1 (stereo unspecified)
CC50 [2]: 45 µM
selectivity ratio [4]: 1.3
Activity (Hepatitis C virus): inactive
Activity (Chikungunya virus): inactive
EC50 (Coxsackievirus B3 [3]): 35 µM
EC90 (Coxsackievirus B3 [3]): > 45 µM

C[C@@]1(O)[C@H](O)[C@@H](CO)O[C@H]1n1ccc(N)nc1=O
EC50 (Coxsackievirus B3 [3]): 94 µM
EC90 (Coxsackievirus B3 [3]): 179 µM

CCCCCC(=O)O[C@H]1C[C@H]2C[C@@H]1[C@H](n1cnc3c(Cl)ncnc31)C2 (relative stereo)
CC50 [2]: 70 µM
selectivity ratio [4]: < 1
Activity (Hepatitis C virus): inactive
Activity (Chikungunya virus): inactive
EC50 (Coxsackievirus B3 [3]): > 70 µM
EC90 (Coxsackievirus B3 [3]): > 70 µM

CCCCCCCC(=O)O[C@H]1C[C@H]2C[C@@H]1[C@H](n1cnc3c(Cl)ncnc31)C2 (relative stereo)
CC50 [2]: 50 µM
selectivity ratio [4]: < 1
Activity (Hepatitis C virus): inactive
Activity (Chikungunya virus): inactive
EC50 (Coxsackievirus B3 [3]): > 50 µM
EC90 (Coxsackievirus B3 [3]): > 50 µM

CCCCCCCCCC(=O)O[C@H]1C[C@H]2C[C@@H]1[C@H](n1cnc3c(Cl)ncnc31)C2 (relative stereo)
CC50 [2]: 44 µM
selectivity ratio [4]: < 1
Activity (Hepatitis C virus): inactive
Activity (Chikungunya virus): inactive
EC50 (Coxsackievirus B3 [3]): > 44 µM
EC90 (Coxsackievirus B3 [3]): > 44 µM

CCCCCC(=O)O[C@H]1C[C@H]2C[C@@H]1C[C@@H]2n1cnc2c(Cl)ncnc21 (relative stereo)
CC50 [2]: 60 µM
selectivity ratio [4]: 1.8
Activity (Vero): Non-toxic
Activity (Hepatitis C virus): inactive
Activity (Chikungunya virus): inactive
EC50 (Coxsackievirus B3 [3]): 34 µM
EC90 (Coxsackievirus B3 [3]): 56 µM
Activity (Coxsackievirus B3 [5]): Active

CCCCCCCC(=O)O[C@H]1C[C@H]2C[C@@H]1C[C@@H]2n1cnc2c(Cl)ncnc21 (relative stereo)
CC50 [2]: 52 µM
selectivity ratio [4]: < 1
Activity (Hepatitis C virus): inactive
Activity (Chikungunya virus): inactive
EC50 (Coxsackievirus B3 [3]): > 52 µM
EC90 (Coxsackievirus B3 [3]): > 52 µM

CCCCCCCCCC(=O)O[C@H]1C[C@H]2C[C@@H]1C[C@@H]2n1cnc2c(Cl)ncnc21 (relative stereo)
CC50 [2]: 47 µM
selectivity ratio [4]: 1.5
Activity (Vero): Non-toxic
Activity (Hepatitis C virus): inactive
Activity (Chikungunya virus): inactive
EC50 (Coxsackievirus B3 [3]): 32 µM
EC90 (Coxsackievirus B3 [3]): > 47 µM
Activity (Coxsackievirus B3 [5]): Active

CO[C@H]1C[C@H]2C[C@@H]1C[C@@H]2n1cnc2c(Cl)ncnc21 (relative stereo)
CC50 [2]: > 718 µM
selectivity ratio [4]: > 27
Activity (Vero): Non-toxic
Activity (Hepatitis C virus): inactive
Activity (Chikungunya virus): inactive
EC50 (Coxsackievirus B3 [3]): 27 µM
EC90 (Coxsackievirus B3 [3]): 37 µM
Activity (Coxsackievirus B3 [5]): Active

CCCCCO[C@H]1C[C@H]2C[C@@H]1C[C@@H]2n1cnc2c(Cl)ncnc21 (relative stereo)
CC50 [2]: 32 µM
selectivity ratio [4]: 1.5
Activity (Hepatitis C virus): inactive
Activity (Chikungunya virus): inactive
EC50 (Coxsackievirus B3 [3]): 21 µM
EC90 (Coxsackievirus B3 [3]): > 32 µM

CCCCCCO[C@H]1C[C@H]2C[C@@H]1C[C@@H]2n1cnc2c(Cl)ncnc21 (relative stereo)
CC50 [2]: 27 µM
selectivity ratio [4]: < 1
Activity (Hepatitis C virus): inactive
Activity (Chikungunya virus): inactive
EC50 (Coxsackievirus B3 [3]): > 27 µM
EC90 (Coxsackievirus B3 [3]): > 27 µM

Clc1ncnc2c1ncn2[C@H]1C[C@H]2C[C@@H]1C[C@@H]2OC1CCCCC1 (relative stereo)
CC50 [2]: 22 µM
selectivity ratio [4]: < 1
Activity (Hepatitis C virus): inactive
Activity (Chikungunya virus): inactive
EC50 (Coxsackievirus B3 [3]): > 22 µM
EC90 (Coxsackievirus B3 [3]): > 22 µM

Clc1ncnc2c1ncn2[C@H]1C[C@H]2C[C@@H]1C[C@@H]2Oc1ccccc1 (relative stereo)
CC50 [2]: 50 µM
selectivity ratio [4]: < 1
Activity (Hepatitis C virus): inactive
Activity (Chikungunya virus): inactive
EC50 (Coxsackievirus B3 [3]): > 50 µM
EC90 (Coxsackievirus B3 [3]): > 50 µM

Clc1ncnc2c1ncn2[C@@H]1C[C@@H]2C[C@H]1[C@@H](Oc1ccccc1)C2 (relative stereo)
CC50 [2]: > 587 µM
Activity (Hepatitis C virus): inactive
Activity (Chikungunya virus): inactive
EC50 (Coxsackievirus B3 [3]): > 150 µM
EC90 (Coxsackievirus B3 [3]): > 150 µM

Oc1ccc(O[C@H]2C[C@H]3C[C@@H]2C[C@@H]3n2cnc3c(Cl)ncnc32)cc1 (relative stereo)
CC50 [2]: 217 µM
selectivity ratio [4]: 3.7
Activity (Hepatitis C virus): inactive
Activity (Chikungunya virus): inactive
EC50 (Coxsackievirus B3 [3]): 58 µM

OCCO[C@H]1C[C@H]2C[C@@H]1C[C@@H]2n1cnc2c(Cl)ncnc21 (relative stereo)
CC50 [2]: > 648 µM
selectivity ratio [4]: > 18
Activity (Vero): Non-toxic
Activity (Hepatitis C virus): inactive
Activity (Chikungunya virus): inactive
EC50 (Coxsackievirus B3 [3]): 37 µM
Activity (Coxsackievirus B3 [5]): Active

OCCCO[C@H]1C[C@H]2C[C@@H]1C[C@@H]2n1cnc2c(Cl)ncnc21 (relative stereo)
CC50 [2]: > 620 µM
selectivity ratio [4]: > 13
Activity (Vero): Non-toxic
Activity (Hepatitis C virus): inactive
Activity (Chikungunya virus): inactive
EC50 (Coxsackievirus B3 [3]): 47 µM
Activity (Coxsackievirus B3 [5]): Active

OCCCCO[C@H]1C[C@H]2C[C@@H]1C[C@@H]2n1cnc2c(Cl)ncnc21 (relative stereo)
CC50 [2]: > 594 µM
selectivity ratio [4]: > 16
Activity (Vero): Non-toxic
Activity (Hepatitis C virus): inactive
Activity (Chikungunya virus): inactive
EC50 (Coxsackievirus B3 [3]): 37 µM
EC90 (Coxsackievirus B3 [3]): 53 µM
Activity (Coxsackievirus B3 [5]): Active

OCCCCCO[C@H]1C[C@H]2C[C@@H]1C[C@@H]2n1cnc2c(Cl)ncnc21 (relative stereo)
CC50 [2]: > 570 µM
selectivity ratio [4]: > 26
Activity (Vero): Non-toxic
Activity (Hepatitis C virus): inactive
Activity (Chikungunya virus): inactive
EC50 (Coxsackievirus B3 [3]): 22 µM
EC90 (Coxsackievirus B3 [3]): 30 µM
Activity (Coxsackievirus B3 [5]): Active

OCCOCCO[C@H]1C[C@H]2C[C@@H]1C[C@@H]2n1cnc2c(Cl)ncnc21 (relative stereo)
CC50 [2]: > 567 µM
selectivity ratio [4]: > 14
Activity (Vero): Non-toxic
Activity (Hepatitis C virus): inactive
solubility [1]: 7460 µg/mL (≈ 21.1 mM)
Activity (Chikungunya virus): inactive
EC50 (Coxsackievirus B3 [3]): 42 µM
EC90 (Coxsackievirus B3 [3]): 60 µM
Activity (Coxsackievirus B3 [5]): Active

OCCO[C@H]1C[C@H]2C[C@@H]1[C@H](n1cnc3c(Cl)ncnc31)C2 (relative stereo)
CC50 [2]: > 648 µM
selectivity ratio [4]: > 22
Activity (Vero): Non-toxic
Activity (Hepatitis C virus): inactive
Activity (Chikungunya virus): inactive
EC50 (Coxsackievirus B3 [3]): 29 µM
EC90 (Coxsackievirus B3 [3]): 37 µM
Activity (Coxsackievirus B3 [5]): Active

OCCO[C@@H]1C[C@H]2C[C@@H]1C[C@@H]2n1cnc2c(Cl)ncnc21 (relative stereo)
CC50 [2]: > 648 µM
selectivity ratio [4]: > 41
Activity (Vero): Non-toxic
Activity (Hepatitis C virus): inactive
solubility [1]: 4570 µg/mL (≈ 14.8 mM)
Activity (Chikungunya virus): inactive
EC50 (Coxsackievirus B3 [3]): 16 µM
EC90 (Coxsackievirus B3 [3]): 32 µM
Activity (Coxsackievirus B3 [5]): Active

OCCO[C@@H]1C[C@H]2C[C@@H]1[C@H](n1cnc3c(Cl)ncnc31)C2 (relative stereo)
CC50 [2]: > 648 µM
selectivity ratio [4]: > 50
Activity (Vero): Non-toxic
Activity (Hepatitis C virus): inactive
solubility [1]: 4690 µg/mL (≈ 15.2 mM)
Activity (Chikungunya virus): inactive
EC50 (Coxsackievirus B3 [3]): 13 µM
EC90 (Coxsackievirus B3 [3]): 22 µM
Activity (Coxsackievirus B3 [5]): Active
